Columns and labels:
[1] = tested on: middle cerebral artery (MCA) occlusion model mice; experiment: Evaluation of therapeutic effect on ischemia-reperfusion brain damage (MCA occlusion model, single i.v. dose after reperfusion); format: in vivo, male ddY mice; details: infarct volume at 24 h
Excerpt: Thus, a model evaluated for therapeutic effect of ischemia-reperfusion brain damage was constructed by administering a drug after reperfusion in the MCA occlusion model, and the effect of the test compound as a therapeutic drug was investigated: the therapeutic effect evaluation model reflects the direct damage by reactive oxygen species (ROIs) and the process to the secondary oxidative stress and inflammatory response due to ROIs. (2) Evaluation Method for Therapeutic Effect of Ischemia-Reperfusion Brain Damage With the use of male ddY mice (25-30 g, 6-7 weeks old), middle cerebral artery (MCA) occlusion model mice were prepared according to the method of Koizumi et al. (“Strokes”, Vol. 8, pp 1-8, 1986). The MCA occlusion was 4 hours, and a single dose of drug solution was intravenously administered 6 or 10 hours after the start of ischemia (i.e., 2 hours or […]). Brain slice samples were prepared 24 hours after the start of infarction and stained with triphenyltetrazolium chloride (TTC staining), and then the cerebral infarct volume was measured from the brain slice samples by image processing.

[2] = tested on: middle cerebral artery (MCA) occlusion model mice; experiment: Evaluation of preventive effect on ischemia-reperfusion brain damage (MCA occlusion model, drug i.v. immediately before and 3 h after infarction); format: in vivo, male ddY mice; details: 4 h MCA occlusion, infarct volume 24 h after start of occlusion (TTC)
Description: In addition, a drug was administered immediately before infarction and during infarction in the MCA occlusion model, and the effect as a preventive drug was also investigated.
(1) Evaluation Method for Preventive Effect of Ischemia-Reperfusion Brain Damage
With the use of male ddY mice (25-30 g, 6-7 weeks old), middle cerebral artery (MCA) occlusion model mice were prepared according to the method of Koizumi et al. (“Strokes”, Vol. 8, pp 1-8, 1986). The MCA occlusion was carried out for 4 hours, a test drug solution was intravenously administered twice, namely, immediately before infarction and 3 hours after infarction. Brain slice samples were prepared 24 hours after the start of infarction and stained with triphenyltetrazolium chloride (TTC staining), and then the cerebral infarct volume was measured from the brain slice samples by image processing.

[3] = tested on: mouse middle cerebral artery (MCA) occlusion model; details: i.v. twice, immediately before infarction and during infarction; prophylactic; cited from earlier work
[4] = single i.v. dose 20 μmol/kg 6 hours after start of ischemia
[5] = i.v. 20 mmol/kg×2 doses (so in the source)
[6] = single i.v. dose 2 μmol/kg 6 hours after start of ischemia

Row | Compound | suppression of the infarct volume [1, 4] | suppression of the infarct volume ([2]; i.v. 2 μmol/kg×2 doses) | suppression of the infarct volume ([2]; i.v. 20 μmol/kg×2 doses) | suppression of the infarct volume ([1]; single i.v. dose 20 μmol/kg 10 hours after start of ischemia) | suppression of the infarct volume [2, 5] | infarct inhibitory effect [3] | suppression of the infarct volume [1, 6]
1 | 2R-γ-tocopheryl phosphate disodium salt [γ-TPS] | a significant suppression of the infarct volume was observed | – | – | – | – | – | –
2 | CC(C)=CCC/C(C)=C/CC/C(C)=C/CO [FO, (2E,6E) farnesol, reference compound] | – | significant suppression of the infarct volume was not observed | significantly suppressed | – | – | – | –
3 | CC(C)=CCCC(C)=CCCC(C)=CCOC(=O)CN(C)C.Cl [FODMG, farnesol N,N-dimethylglycinate hydrochloride] | significantly suppressed | significantly suppressed | – | significantly suppressed | significantly suppressed | – | –
4 | CC1=NN(c2ccccc2)C(=O)C1 [edaravone, reference compound] | – | significantly suppressed | a significant effect was not observed | – | – | – | –
5 | CC(C)=CCC/C(C)=C/CC/C(C)=C/CC[C@]1(C)CCc2c(C)c(O)c(C)c(C)c2O1 [α-T3, 2R-α-tocotrienol] | – | – | – | – | – | excellent infarct inhibitory effect | –
6 | CC(C)=CCC/C(C)=C/CC/C(C)=C/CC[C@]1(C)CCc2c(C)c(OC(=O)CN(C)C)c(C)c(C)c2O1.Cl [α-T3DMG, 2R-α-tocotrienyl N,N-dimethylglycinate hydrochloride] | significantly suppressed | a significant suppression of the infarct volume was observed | a significant suppression of the infarct volume was observed | – | – | – | significantly suppressed
7 | Cc1c(C)c2c(c(C)c1O)CC[C@@](C)(CCC[C@H](C)CCC[C@H](C)CCCC(C)C)O2 [α-Toc, 2R-α-tocopherol, reference compound] | – | a significant suppression of the infarct volume was not observed | significantly suppressed | – | – | – | –
8 | Cc1c(OC(=O)CN(C)C)cc2c(c1C)O[C@](C)(CCC[C@H](C)CCC[C@H](C)CCCC(C)C)CC2.Cl [γ-TDMG, 2R-γ-tocopheryl N,N-dimethylglycinate hydrochloride] | significantly suppressed | a significant suppression of the infarct volume was observed | – | – | a significant suppression of the infarct volume was observed | – | significantly suppressed
9 | Cc1c(O)cc2c(c1C)O[C@](C)(CCC[C@H](C)CCC[C@H](C)CCCC(C)C)CC2 [γ-Toc, 2R-γ-tocopherol, reference compound] | significantly suppressed | significantly suppressed | significantly suppressed | – | – | excellent infarct inhibitory effect | significantly suppressed

Source: patent publication US8242302B2, “Inhibitor of ischemic disorders” (Fukuoka University, priority 2007, dated 2012)
